In patent US10577332B2, “Tetrazole derivatives” (Hoffmann-La Roche Inc., priority 2015, dated 2020) one finds Kb and melting point data, which are given here for 26 compounds.

Series [1] addresses T1, human EAAT3 (Homo sapiens, UniProt P43005).
T1 construct: expressed in transfected cells
T1 sequence (P43005 1-524): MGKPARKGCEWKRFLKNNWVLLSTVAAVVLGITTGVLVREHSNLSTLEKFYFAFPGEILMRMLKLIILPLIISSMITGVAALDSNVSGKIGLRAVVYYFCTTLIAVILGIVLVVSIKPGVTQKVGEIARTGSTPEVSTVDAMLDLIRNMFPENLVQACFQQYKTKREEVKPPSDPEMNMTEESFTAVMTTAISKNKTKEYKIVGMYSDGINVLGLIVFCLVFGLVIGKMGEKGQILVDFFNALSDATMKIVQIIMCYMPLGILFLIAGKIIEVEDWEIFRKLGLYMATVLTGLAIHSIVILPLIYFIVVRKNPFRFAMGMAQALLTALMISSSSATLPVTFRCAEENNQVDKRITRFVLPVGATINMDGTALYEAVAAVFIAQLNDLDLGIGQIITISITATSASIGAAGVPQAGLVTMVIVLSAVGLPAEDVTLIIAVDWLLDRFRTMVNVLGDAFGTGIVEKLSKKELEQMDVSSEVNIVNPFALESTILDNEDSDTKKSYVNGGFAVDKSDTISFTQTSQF
Nature of the series: FLIPR Membrane Potential (FMP) assay. To be noted: HEK-293 cells stably expressing human EAAT3; antagonist applied 15 min before L-glutamate at EC80; Kb by Cheng-Prusoff from IC50. It counts as cell-based. On the procedure:
The FLIPR Membrane Potential (FMP) Assay
HEK-293 cells stably expressing human EAAT3 were seeded at 55 000 cells/well in growth medium (DMEM glutamate free (Invitrogen 11960-044), 1% Pen Strep (10 ml/l GIBCO BRL No 15140-023), 10% FCS non dialysed heat inactivated, 5 mg/l puromycin) in poly-D-lysine treated 96-well black microtiter plates with clear-bottom. After 24 h, the growth medium was removed and 100 μl/well of Krebs buffer (140 mM NaCl, 4.7 mM KCl, 2.5 mM CaCl2, 1.2 mM MgCl2, 11 mM HEPES, 10 mM D-glucose, pH=7.4) added. The cells were then loaded by adding 100 μl/well FMP assay dye (FLIPR Membrane Potential assay reagent, Molecular Devices). The 96-well plates were then incubated at 37° C. for 1 h. The depolarization of the cells will cause more dye to enter in the cells, where it will bind to intracellular proteins and lipids and cause an increase in the fluorescence signal. Antagonist potency at human EAAT3 was determined by using L-glutamate as agonist at a concentration which gives 80% of the maximum response. The antagonists were applied 15 min before the application of the agonist L-glutamate. The assays were performed at room temperature and measurements done by using a Fluorometric Imaging Plate Reader (FLIPR, Molecular Devices) and filter #2. Responses were measured as peak increase in fluorescence minus basal (i.e. fluorescence without addition of L-glutamate). Kb was determined using the Cheng-Prusoff equation Kb=IC50/[1+(A/EC50)], where IC50 is the concentration of the antagonist producing 50% inhibition, A is the concentration of the agonist against which the IC50 is being determined (at EC80) and EC50 is the concentration of the agonist producing 50% […].

Broadly, the Kb is the equilibrium dissociation constant of an antagonist, usually derived from a functional assay. A lower Kb goes with a more potent antagonist. Broadly, the melting point is the temperature of the solid-liquid transition. Compound `CC(C)(NC(=O)c1cc(-c2ccc(F)cc2)cc(-n2cnnn2)c1)C1CC1` [Example 21, N-(2-cyclopropylpropan-2-yl)-3-(4-fluorophenyl)-5-(tetrazol-1-yl)-benzamide] registered a melting point of 193 °C. The compound also returned a Kb in series [1] of 960 nM.
`Cc1ccc(-c2cc(C(=O)NC(C)(C)CO)cc(-n3nnnc3C3CC3)c2)cc1` [Example 32, 3-(5-Cyclopropyltetrazol-1-yl)-N-(1-hydroxy-2-methylpropan-2-yl)-5-(4-methylphenyl)-benzamide] had a Kb in series [1] of 430 nM.
`Cc1nnnn1-c1cc(C(=O)NC(C)(C)CO)cc(-c2ccc(Cl)cc2)c1` [Example 64, 3-(4-Chlorophenyl)-N-(1-hydroxy-2-methylpropan-2-yl)-5-(5-methyl-tetrazol-1-yl)-benzamide] showed a melting point of 193 °C. Further, in series [1], the Kb was determined as 420 nM.
Taken in the same sequence, the figures for `CCC(C)(C)NC(=O)c1cc(-c2ccc(C)cc2)cc(-n2nnnc2C2CC2)c1` [Example 27, 3-(5-Cyclopropyltetrazol-1-yl)-N-(2-methylbutan-2-yl)-5-(4-methylphenyl)-benzamide] were 75 °C and 200 nM.
Taken in the same sequence, the figures for `CC(C)c1nnnn1-c1cc(C(=O)NC(C)(C)C2CC2)cc(-c2ccc(Cl)cc2)c1` [Example 44, 3-(4-Chlorophenyl)-N-(2-cyclopropylpropan-2-yl)-5-(5-propan-2-yltetrazol-1-yl)-benzamide] were 83 °C and 210 nM.
Consider `CCC(C)(C)NC(=O)c1cc(-c2ccc(Cl)c(F)c2)cc(-n2cnnn2)c1` [Example 37, 3-(4-Chloro-3-fluorophenyl)-N-(2-methylbutan-2-yl)-5-(tetrazol-1-yl)-benzamide], for which, in series [1], the Kb is 240 nM. In other words, the sub-micromolar range.
For `Cc1nnnn1-c1cc(C(=O)NC(C)(C)C(F)(F)F)cc(-c2ccc(F)cc2)c1` [Example 86, 3-(4-Fluorophenyl)-5-(5-methyltetrazol-1-yl)-N-(1,1,1-trifluoro-2-methylpropan-2-yl)-benzamide], the melting point turned out to be 86 °C. The Kb in series [1] turned out to be 200 nM.
Taken in the same sequence, the figures for `CC(C)(C)NC(=O)c1cc(-c2ccc(F)cc2)cc(-n2nnnc2C(C)(C)C)c1` [Example 98, N-tert-Butyl-3-(5-tert-butyltetrazol-1-yl)-5-(4-fluorophenyl)-benzamide] were 223.5 °C and 100 nM.
In turn, `CCC(C)(C)NC(=O)c1cc(-c2ccc(Cl)c(Cl)c2)cc(-n2cnnn2)c1` [Example 38, 3-(3,4-Dichlorophenyl)-N-(2-methylbutan-2-yl)-5-(tetrazol-1-yl)-benzamide] had a melting point of 206 °C. For the same compound, the Kb in series [1] is 700 nM.
Taken in the same sequence, the figures for `CC(C)c1nnnn1-c1cc(C(=O)NC(C)(C)C)cc(-c2ccc(C(F)(F)F)cc2)c1` [Example 47, N-tert-Butyl-3-(5-propan-2-yltetrazol-1-yl)-5-[4-(trifluoromethyl)-phenyl]-benzamide] were 92 °C and 270 nM.
Taken in the same sequence, the figures for `CC(C)(C)NC(=O)c1cc(-c2ccc(C(F)(F)F)cc2)cc(-n2nnnc2C(C)(C)C)c1` [Example 104, N-tert-Butyl-3-(5-tert-butyltetrazol-1-yl)-5-[4-(trifluoromethyl)-phenyl]-benzamide] were 241 °C and 190 nM.
The compound “N-(2-methylbutan-2-yl)-3-(4-methylphenyl)-5-(5-methyltetrazol-1-yl)-benzamide [Example 22]” showed an antagonist equilibrium constant (Kb) in series [1] of 150 nM.
`CC(C)(NC(=O)c1cc(-c2ccc(F)cc2)cc(-n2nnnc2C2CC2)c1)C1CC1` [Example 72, N-(2-Cyclopropylpropan-2-yl)-3-(5-cyclopropyltetrazol-1-yl)-5-(4-fluorophenyl)-benzamide]: the melting point came to 73 °C. For the same compound, in series [1], the Kb is 380 nM.
Taken in the same sequence, the figures for `CC(C)(CO)NC(=O)c1cc(-c2ccc(F)cc2)cc(-n2nnnc2C2CC2)c1` [Example 71, 3-(5-Cyclopropyltetrazol-1-yl)-5-(4-fluorophenyl)-N-(1-hydroxy-2-methylpropan-2-yl)-benzamide] were 80 °C and 410 nM.
With `CCC(C)(C)NC(=O)c1cc(-c2ccc(C3CC3)cc2)cc(-n2cnnn2)c1` [Example 9, 3-(4-Cyclopropylphenyl)-N-(2-methylbutan-2-yl)-5-(tetrazol-1-yl)-benzamide], in series [1], the antagonist dissociation constant (Kb) stood at 540 nM.
Turning to `CC1(NC(=O)c2cc(-c3ccc(F)cc3)cc(-n3nnnc3C3CC3)c2)CCS(=O)(=O)C1` (racemic) [Example 77, (RS)-3-(5-Cyclopropyltetrazol-1-yl)-5-(4-fluorophenyl)-N-(3-methyl-1,1-dioxothiolan-3-yl)-benzamide], the melting point is 120 °C. In addition, in series [1], the Kb came to 250 nM.
Taken in the same sequence, the figures for `CC(C)(C)NC(=O)c1cc(-c2ccc(Cl)cc2)cc(-n2nnnc2C2CC2)c1` [Example 56, N-tert-Butyl-3-(4-chlorophenyl)-5-(5-cyclopropyltetrazol-1-yl)-benzamide] were 90 °C and 180 nM.
Taken in the same sequence, the figures for `CC1(NC(=O)c2cc(-c3ccc(F)cc3)cc(-n3nnnc3C(C)(C)C)c2)CCS(=O)(=O)C1` (racemic) [Example 95, (RS)-3-(5-tert-Butyltetrazol-1-yl)-5-(4-fluorophenyl)-N-(3-methyl-, 1-dioxothiolan-3-yl)-benzamide] were 258.5 °C and 350 nM.
Taken in the same sequence, the figures for `CCC(C)(C)NC(=O)c1cc(-c2ccc(Cl)cc2)cc(-n2nnnc2C(C)C)c1` [Example 42, 3-(4-Chlorophenyl)-N-(2-methylbutan-2-yl)-5-(5-propan-2-yltetrazol-1-yl)-benzamide] were 85 °C and 160 nM.
The compound `CCC(C)(C)NC(=O)c1cc(-c2ccc(F)c(C)c2)cc(-n2cnnn2)c1` [Example 6, 3-(4-Fluoro-3-methylphenyl)-N-(2-methylbutan-2-yl)-5-(tetrazol-1-yl)-benzamide] displayed a melting point of 120 °C. The Kb in series [1] was 410 nM.
Take `CC(C)c1nnnn1-c1cc(C(=O)NC(C)(C)C2CC2)cc(-c2ccc(C(F)(F)F)cc2)c1` [Example 48, N-(2-Cyclopropylpropan-2-yl)-3-(5-propan-2-yltetrazol-1-yl)-5-[4-(trifluoromethyl)phenyl]benzamide]: the melting point was determined as 90 °C. The antagonist dissociation constant (Kb) in series [1] stood at 420 nM.
In turn, `CC(C)(C)NC(=O)c1cc(-c2ccc(Cl)cc2)cc(-n2nnnc2C(F)(F)F)c1` [Example 75, N-tert-Butyl-3-(4-chlorophenyl)-5-[5-(trifluoromethyl)-tetrazol-1-yl]-benzamide] registered a melting point of 186 °C. The compound further gave a Kb in series [1] of 110 nM.
Taken in the same sequence, the figures for `CC(C)(C)c1nnnn1-c1cc(C(=O)NC(C)(C)C2CC2)cc(-c2ccc(C(F)(F)F)cc2)c1` [Example 111, 3-(5-tert-Butyltetrazol-1-yl)-N-(2-cyclopropylpropan-2-yl)-5-[4-(trifluoromethyl)-phenyl]-benzamide] were 95.5 °C and 500 nM.
As for `CC(C)c1nnnn1-c1cc(C(=O)NC(C)(C)CO)cc(-c2ccc(C(F)(F)F)cc2)c1` [Example 51, N-(1-Hydroxy-2-methylpropan-2-yl)-3-(5-propan-2-yltetrazol-1-yl)-5-[4-(trifluoromethyl)-phenyl]-benzamide], the Kb in series [1] was 370 nM.
In turn, `CC(C)c1nnnn1-c1cc(C(=O)NC(C)(C)CO)cc(-c2ccc(Cl)cc2)c1` [Example 50, 3-(4-Chlorophenyl)-N-(1-hydroxy-2-methylpropan-2-yl)-5-(5-propan-2-yltetrazol-1-yl)-benzamide] gave a Kb in series [1] of 260 nM. This Kb and that of the compound before are within 1.5-fold of each other.
The same measure, in the same setting: for `CCC(C)(C)NC(=O)c1cc(-c2ccc(C(C)C)cc2)cc(-n2cnnn2)c1` [Example 8, N-(2-Methylbutan-2-yl)-3-(4-propan-2-ylphenyl)-5-(tetrazol-1-yl)-benzamide] the value was 610 nM.
